From patent publication US8134015B2, “Compound inhibiting in vivo phosphorous transport and medicine containing the same” (Kyowa Hakko Kirin Co., Ltd., priority 2003, dated 2012)

Biological target: T1, rat NaPi-2b (Rattus norvegicus, UniProt Q9JJ09)
T1 construct: expressed in transfected cells; host or cells: Xenopus oocytes injected with cRNA
T1 sequence (Q9JJ09 1-695): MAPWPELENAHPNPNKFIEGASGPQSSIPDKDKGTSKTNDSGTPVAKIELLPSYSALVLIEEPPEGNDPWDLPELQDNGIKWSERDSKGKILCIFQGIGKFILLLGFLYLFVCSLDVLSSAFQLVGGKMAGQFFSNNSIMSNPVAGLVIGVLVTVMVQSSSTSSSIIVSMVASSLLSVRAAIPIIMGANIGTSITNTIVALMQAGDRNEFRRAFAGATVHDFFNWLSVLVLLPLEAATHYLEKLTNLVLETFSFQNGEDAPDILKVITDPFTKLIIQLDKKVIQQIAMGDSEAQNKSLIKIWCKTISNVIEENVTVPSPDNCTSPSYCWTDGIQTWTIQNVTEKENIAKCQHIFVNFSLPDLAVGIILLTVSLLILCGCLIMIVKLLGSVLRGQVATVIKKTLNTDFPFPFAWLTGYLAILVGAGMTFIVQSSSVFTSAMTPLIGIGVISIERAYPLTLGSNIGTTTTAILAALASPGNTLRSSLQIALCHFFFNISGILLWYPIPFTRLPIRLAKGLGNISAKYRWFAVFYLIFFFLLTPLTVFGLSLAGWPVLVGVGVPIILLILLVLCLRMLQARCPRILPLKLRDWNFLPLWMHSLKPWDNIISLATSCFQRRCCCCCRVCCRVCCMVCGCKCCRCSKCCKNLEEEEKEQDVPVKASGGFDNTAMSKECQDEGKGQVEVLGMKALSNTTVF
Assay: Sodium-dependent phosphate uptake of Xenopus oocytes which expressed NaPi-2b (32P)
Assay type: cell-based
Conditions: for IC50: Xenopus oocytes expressing rat NaPi-2b, 32P radioactive phosphorus, read-out: IC50 (phosphate uptake inhibitory activity)
Method in brief: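 Oocytes injected with rat NaPi-2b cRNA, cultured 2 d, then 32P uptake measured with compound. Values: % inhibition at 300 and 100 μM, both from one inhibition curve.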

[1] = phosphate uptake, oocytes expressing rat NaPi-2b, determined from inhibition curve

| SMILES | IC50 | other results |
| --- | --- | --- |
| COc1ccc(/C=N/NC(=O)c2cc(N3CCC(N4CCCCC4)CC3)ccc2NC(=O)c2cccc(CSCCO)c2)cc1 [Compound 1068] | – | inhibition at 100 µM (phosphate uptake, oocytes expressing rat NaPi-2b, 100 μM, determined from inhibition curve): 74.4% |
| Cc1ccc(/C=N/NC(=O)c2cc(Br)ccc2NC(=O)c2ccno2)cc1C [Compound 512, Isoxazole-5-carboxylic acid [4-bromo-2-(3,4-dimethyl-benzylidene-hydrazinocarbonyl)-phenyl]-amide] | 28.3 µM | – |
| O=C(Nc1ccc(Cl)cc1C(=O)N/N=C/c1ccc(F)cc1)c1cccc(CSCc2ccco2)c1 [Compound 681, N-[4-Chloro-2-(4-fluoro-benzylidene-hydrazinocarbonyl)-phenyl]-3-(furan-2-ylmethylsulfanylmethyl)-benzamide] | 25.9 µM | – |
| COc1ccc(C(=O)Nc2ccccc2C(=O)N/N=C/c2cc(C)ccc2C)cc1OC [Compound 43, N-[2-(2,5-Dimethyl-benzylidene-hydrazinocarbonyl)-phenyl]-3,4-dimethoxy-benzamide] | 20.7 µM | – |
| CCN(CC)CCOc1ccc(NC(=O)c2cccc(CN(CC(C)O)CC(C)O)c2)c(C(=O)NN=Cc2ccc(C)c(C)c2)c1 (stereo not shown) [Compound 943, 3-{[Bis-(2-hydroxy-propyl)-amino]-methyl}-N-[4-(2-diethylamino-ethoxy)-2-(3,4-dimethyl-benzylidene-hydrazinocarbonyl)-phenyl]-benzamide] | 10.6 µM | – |
| CC(O)CN(Cc1cccc(C(=O)Nc2ccsc2C(=O)N/N=C/c2cccc(F)c2)c1)CC(C)O (stereo not shown) [Compound 992, 3-{[Bis-(2-hydroxy-propyl)-amino]-methyl}-N-[2-(3-fluoro-benzylidene-hydrazinocarbonyl)-thiophen-3-yl]-benzamide] | – | inhibition at 300 µM [1]: 31.9% |
| Cc1ccc(/C=N/NC(=O)c2c(NC(=O)c3cccc(CN4CCC(CO)CC4)c3)sc3c2CCC3)cc1C [Compound 816, N-[3-(3,4-Dimethyl-benzylidene-hydrazinocarbonyl)-5,6-dihydro-4H-cyclopenta[b]thiophen-2-yl]-3-(4-hydroxymethyl-piperidin-1-ylmethyl)-benzamide] | 14.8 µM | – |
| Cc1ccc(/C=N/NC(=O)c2cc(Cl)ccc2NC(=O)c2cccnc2)cc1 [Compound 187, N-[4-Chloro-2-(4-methyl-benzylidene-hydrazinocarbonyl)-phenyl]-nicotinamide] | 7.87 µM | – |
| Cc1csc(NC(=O)c2cccc(CN3CCC(O)CC3)c2)c1C(=O)N/N=C/c1cccc(F)c1 [Compound 596, N-[3-(3-Fluoro-benzylidene-hydrazinocarbonyl)-4-methyl-thiophen-2-yl]-3-(4-hydroxy-piperidin-1-ylmethyl)-benzamide] | 5.47 µM | – |
| CCN(CC)CCN(C)Cc1cccc(C(=O)Nc2c(C)csc2C(=O)N/N=C/c2ccc(C)c(C)c2)c1 [Compound 342, 3-{[(2-Diethylamino-ethyl)-methyl-amino]-methyl}-N-[2-(3,4-dimethyl-benzylidene-hydrazinocarbonyl)-4-methyl-thiophen-3-yl]-benzamide] | 32.6 µM | – |
| COc1ccc(C(=O)Nc2ccccc2C(=O)N/N=C/c2ccc(N(C)C)cc2)cc1OC [Compound 104, N-[2-(4-Dimethylamino-benzylidene-hydrazinocarbonyl)-phenyl]-3,4-dimethoxy-benzamide] | 11.3 µM | – |
| O=C(Nc1ccc(Br)cc1C(=O)N/N=C/c1cccc(F)c1)c1ccc(CNCCN2CCOCC2)cc1 [Compound 713, N-[4-Bromo-2-(3-fluoro-benzylidene-hydrazinocarbonyl)-phenyl]-4-[(2-morpholin-4-yl-ethylamino)-methyl]-benzamide] | 15.5 µM | – |
| CC(O)CN(Cc1cccc(C(=O)Nc2ccc(N3CCCC3=O)cc2C(=O)N/N=C/c2ccc(Cl)c(C(F)(F)F)c2)c1)CC(C)O (stereo not shown) [Compound 945, 3-{[Bis-(2-hydroxy-propyl)-amino]-methyl}-N-[2-(4-chloro-3-trifluoromethyl-benzylidene-hydrazinocarbonyl)-4-(2-oxo-pyrrolidin-1-yl)-phenyl]-benzamide] | 19.4 µM | – |
| Cc1ccc(/C=N/NC(=O)c2cc(Br)ccc2NC(=O)c2ccc(CN3CCN(c4ccc(F)cc4)CC3)cc2)cc1C [Compound 717, N-[4-Bromo-2-(3,4-dimethyl-benzylidene-hydrazinocarbonyl)-phenyl]-4-[4-(4-fluoro-phenyl)-piperazin-1-ylmethyl]-benzamide] | – | inhibition at 300 µM [1]: 53.5% |
| Cc1ccc(/C=N/NC(=O)c2cc(Br)ccc2NC(=O)c2ccc(CN3CCN(CCO)CC3)cc2)cc1 [Compound 317, N-[4-Bromo-2-(4-methyl-benzylidene-hydrazinocarbonyl)-phenyl]-4-[4-(2-hydroxy-ethyl)-piperazin-1-ylmethyl]-benzamide] | 5.02 µM | – |
| CN(CCCNCc1ccc(C(=O)Nc2ccc(Br)cc2C(=O)N/N=C/c2ccc(F)cc2)cc1)c1ccccc1 [Compound 759, N-[4-Bromo-2-(4-fluoro-benzylidene-hydrazinocarbonyl)-phenyl]-4-{[3-(methyl-phenyl-amino)-propylamino]-methyl}-benzamide] | – | inhibition at 300 µM [1]: 63.9% |
| COc1ccc(C(=O)Nc2ccccc2C(=O)N/N=C/c2ccsc2)cc1OC [Compound 24, 3,4-Dimethoxy-N-[2-(thiophen-3-ylmethylene-hydrazinocarbonyl)-phenyl]-benzamide] | 20.9 µM | – |
| CCN(CCO)Cc1ccc(C(=O)Nc2ccc(Cl)cc2C(=O)N/N=C/c2ccc(C)c(C)c2)cc1 [Compound 436, N-[4-Chloro-2-(3,4-dimethyl-benzylidene-hydrazinocarbonyl)-phenyl]-4-{[ethyl-(2-hydroxy-ethyl)-amino]-methyl}-benzamide] | 8.36 µM | – |

More lines, main results first:

| IC50 | SMILES | other results |
| --- | --- | --- |
| < 3 µM | Cc1ccc(/C=N/NC(=O)c2cc(I)ccc2NC(=O)c2cccc(CN3CCC(N4CCCCC4)CC3)c2)cc1C [Compound 486, 3-[1,4′]Bipiperidinyl-1′-ylmethyl-N-[2-(3,4-dimethyl-benzylidene-hydrazinocarbonyl)-4-iodo-phenyl]-benzamide] | – |
| 1.82 µM | Cc1ccc(/C=N/NC(=O)c2cc(Br)ccc2NC(=O)c2cccc(CSc3ccncc3)c2)cc1C [Compound 199, N-[4-Bromo-2-(3,4-dimethyl-benzylidene-hydrazinocarbonyl)-phenyl]-3-(pyridin-4-ylsulfanylmethyl)-benzamide] | – |
| 1.23 µM | Cc1ccc(/C=N/NC(=O)c2c(NC(=O)c3cccc(CN(CC(C)O)CC(C)O)c3)sc3c2CCC3)cc1C (stereo not shown) [Compound 804, 3-{[Bis-(2-hydroxy-propyl)-amino]-methyl}-N-[3-(3,4-dimethyl-benzylidene-hydrazinocarbonyl)-5,6-dihydro-4H-cyclopenta[b]thiophen-2-yl]-benzamide] | – |
| < 1 µM | CC(O)CN(Cc1cccc(C(=O)Nc2cc3ccccc3cc2C(=O)N/N=C/c2cccc(F)c2)c1)CC(C)O (stereo not shown) [Compound 959, 3-{[Bis-(2-hydroxy-propyl)-amino]-methyl}-N-[3-(3-fluoro-benzylidene-hydrazinocarbonyl)-naphthalen-2-yl]-benzamide] | – |
| 1.55 µM | CCN(CC)CCN(C)Cc1cccc(C(=O)Nc2ccc(N3CCCC3)cc2C(=O)N/N=C/c2ccc(OC)cc2)c1 [Compound 918, 3-{[(2-Diethylamino-ethyl)-methyl-amino]-methyl}-N-[2-(4-methoxy-benzylidene-hydrazinocarbonyl)-4-pyrrolidin-1-yl-phenyl]-benzamide] | – |
| 2.52 µM | COc1ccc(/C=N/NC(=O)c2cc(Cl)ccc2NC(=O)c2cccc(CN(CCO)CCO)c2)cc1 [Compound 409, 3-{[Bis-(2-hydroxy-ethyl)-amino]-methyl}-N-[4-chloro-2-(4-methoxy-benzylidene-hydrazinocarbonyl)-phenyl]-benzamide] | – |
| 2.71 µM | Cc1ccc(/C=N/NC(=O)c2cc(Br)ccc2NC(=O)c2cccc(CSc3ccncc3)c2)cc1 [Compound 198, N-[4-Bromo-2-(4-methyl-benzylidene-hydrazinocarbonyl)-phenyl]-3-(pyridin-4-ylsulfanylmethyl)-benzamide] | – |
| 1.92 µM | Cc1ccc(/C=N/NC(=O)c2cc(Br)ccc2NC(=O)c2ccc(CNCCCN(CCO)CCO)cc2)cc1C [Compound 300, 4-({3-[Bis-(2-hydroxy-ethyl)-amino]-propylamino}-methyl)-N-[4-bromo-2-(3,4-dimethyl-benzylidene-hydrazinocarbonyl)-phenyl]-benzamide] | – |
| 2.63 µM | CCN(CC)CCN(Cc1cccc(C(=O)Nc2sc3c(c2C(=O)N/N=C/c2ccc(OC)cc2)CCCC3)c1)C(C)=O [Compound 657, 3-{[Acetyl-(2-diethylamino-ethyl)-amino]-methyl}-N-[3-(4-methoxy-benzylidene-hydrazinocarbonyl)-4,5,6,7-tetrahydro-benzo[b]thiophen-2-yl]-benzamide] | – |
| 4.05 µM | Cc1cc(/C=N/NC(=O)c2ccccc2NC(=O)c2cccnc2)oc1C [Compound 218, N-[2-(4,5-Dimethyl-furan-2-ylmethylene-hydrazinocarbonyl)-phenyl]-nicotinamide] | – |
